# Measured values taken from US10434075B2, “FKBP52 specific androgen receptor inhibitor, MJC13, for use in treating breast cancer” (THE BOARD OF REGENTS OF THE UNIVERSITY OF TEXAS SYSTEM, priority 2016, dated 2019).
# “Also recorded” adds a separate entry of the source.
# Experiments:
# [1] = test system: prostate cancer xenograft; conditions: prostate cancer xenograft model, preclinical studies; cited from earlier work
# [2] = test system: tamoxifen-resistant MCF-7 breast cancer cells; assay: Proliferation in tamoxifen-resistant MCF-7 breast cancer cells; format: cell-based; conditions: no difference in AR expression levels, FIG. 2
# ER = assay: E2-induced ER chromatin binding / ER recruitment to E2-dependent promoters; format: cell-based; conditions: FIG. 3
# [3] = test system: human prostate cancer cell lines; conditions: variety of human prostate cancer cell lines; cited from earlier work
# [4] = test system: MCF-7 breast cancer cells; assay: E2-induced proliferation in MCF-7 breast cancer cells; format: cell-based; conditions: FIG. 1
# AR [5] = conditions: variety of human prostate cancer cell lines; cited from earlier work
# AR [6] = conditions: binding AR BF3 surface; FKBP52-receptor complex prevented from dissociating; cited from earlier work
# [7] = biological target: T1, β-catenin interaction with AR (Homo sapiens, UniProt P10275); assay: β-catenin interaction with AR; conditions: MJC13 targeting to the AR BF3 surface; prostate cancer cells
# T1 sequence (P10275 1-920): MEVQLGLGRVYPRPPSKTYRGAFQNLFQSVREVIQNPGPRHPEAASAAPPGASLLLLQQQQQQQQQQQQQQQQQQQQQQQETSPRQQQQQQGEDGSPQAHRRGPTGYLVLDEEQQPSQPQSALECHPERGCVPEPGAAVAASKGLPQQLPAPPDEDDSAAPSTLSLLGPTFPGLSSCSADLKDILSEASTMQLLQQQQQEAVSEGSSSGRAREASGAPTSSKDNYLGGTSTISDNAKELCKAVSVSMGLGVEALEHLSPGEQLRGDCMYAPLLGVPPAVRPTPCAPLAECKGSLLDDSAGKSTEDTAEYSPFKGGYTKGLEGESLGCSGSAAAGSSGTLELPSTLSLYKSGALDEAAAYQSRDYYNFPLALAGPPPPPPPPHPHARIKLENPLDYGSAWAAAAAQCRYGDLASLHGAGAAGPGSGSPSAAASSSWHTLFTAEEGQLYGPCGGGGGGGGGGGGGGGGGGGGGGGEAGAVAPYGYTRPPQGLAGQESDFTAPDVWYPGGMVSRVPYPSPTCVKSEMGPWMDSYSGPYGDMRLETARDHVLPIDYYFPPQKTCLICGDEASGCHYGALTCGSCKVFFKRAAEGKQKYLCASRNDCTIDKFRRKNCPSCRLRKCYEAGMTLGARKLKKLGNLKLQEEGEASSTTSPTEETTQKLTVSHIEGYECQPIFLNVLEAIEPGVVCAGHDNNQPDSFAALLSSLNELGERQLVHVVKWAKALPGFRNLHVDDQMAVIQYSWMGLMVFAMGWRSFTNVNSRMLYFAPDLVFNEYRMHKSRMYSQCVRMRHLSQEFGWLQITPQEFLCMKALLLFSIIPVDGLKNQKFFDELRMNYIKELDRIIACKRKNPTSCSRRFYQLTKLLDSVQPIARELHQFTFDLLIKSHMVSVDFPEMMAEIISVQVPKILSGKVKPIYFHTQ
smiles,measurement,setting,value
O=C(Nc1cccc(Cl)c1Cl)C1CCCCC1 [MJC13],tumor growth,[1],impressive effects on tumor growth
same,cell proliferation,[2],effectively inhibits cell proliferation
same,E2-induced ER chromatin binding,ER,significantly decreases E2-induced ER chromatin binding; also recorded: affects ER recruitment to E2-dependent promoters
same,AR-dependent cancer cell proliferation,[3],effectively block
same,E2-induced proliferation,[4],inhibits E2-induced proliferation; also recorded: effective inhibitor of E2-induced BC cell proliferation
same,AR signaling,AR [5],effectively block AR signaling
same,AR cellular localisation,AR [6],retention of AR in the cytoplasm
same,β-catenin interaction with AR,[7],abrogates β-catenin interaction with AR
